Assay [1] relates to platelet aggregation in dog PRP. Kind of assay: In-vitro platelet aggregation in PRP (ADP-induced, dog platelet-rich plasma). The class given is cell-based. As to conditions: Canis lupus familiaris, ADP 50 μm final concentration, 37° C., 1 minute preincubation. The method, then: Healthy male or female dogs were fasted for 8 hours prior to drawing blood; then 30 ml whole blood was collected using a butterfly needle and 30 cc plastic syringe with 3 ml of 0.129 M buffered sodium citrate (3.8%). The syringe was rotated carefully as blood was drawn to mix the citrate. Platelet-rich plasma (PRP) was prepared by centrifugation at 975×g for 3.17 minutes at room temperature, allowing the centrifuge to coast to a stop without braking. The PRP was removed from the blood with a plastic pipette and placed in a plastic capped, 50 ml Corning conical sterile centrifuge tube which was held at room temperature. Platelet poor plasma (PPP) was prepared by centrifuging the remaining blood at 2000×g for 15 minutes at room temperature allowing the centrifuge to coast to a stop without braking. The PRP was adjusted with PPP to a count of 2-3×10^8 platelets per ml. 400 μl of the PRP preparation and 50 μl of the compound to be tested or saline were preincubated for 1 minute at 37° C. in a BioData aggregometer (BioData, Horsham, Pa.). 50 μl of adenosine 5'-diphosphate (ADP) (50 μm final concentration) was added to the cuvettes and the aggregation was monitored for 1 minute. All compounds are tested in duplicate. Results are calculated as follows:
Percent of control=[(maximal OD minus initial OD of compound) divided by (maximal OD minus initial OD of control saline)]×100. The % inhibition=100-(percent of control).

Assay [2] deals with fibrinogen binding to platelets. Kind of assay: Fibrinogen binding assay (125I-fibrinogen binding to ADP-activated human platelets). The conditions noted are these: ADP 10 μM, 125I-fibrinogen 0.3 μM, 40 min at 37° C. How it is done:
Fibrinogen binding was performed essentially as described by Plow et al., Blood 70, 110-115 (1987). Briefly, blood from humans who had not been given any antiplatelet drugs in the previous two weeks was collected into 1/10th volume of CCD buffer (100 mM sodium citrates, 136 mM glucose, pH 6.5). The blood was centrifuged for 3 min at 1000×g and platelet rich plasma was transferred to a plastic tube with a plastic pipet and placed on ice. After 15 minutes, 1/2 volume of ice cold CCD buffer was added and the sample was centrifuged at 900×g for 10 min at 2° C. The supernatant was decanted and the platelet pellet was gently resuspended in 1/2 the original volume of ice cold modified Tyrode's buffer (137 mM NaCl, 2.6 mM KCl, 12 mM NaHCO3, 5.5 mM glucose, 15 mM HEPES, 0.5% BSA, pH 7.4). After incubating for 30 minutes at 37° C., the platelet count was adjusted to 4×10^8 platelets/ml with modified Tyrode's buffer. To test samples (final concentration=1×10^8 platelets/ml) were added in sequence: ADP (10 μM), CaCl2 (2 mM), test compound, and ^125 I-fibrinogen (0.3 μM) to the aforesaid final concentrations in a volume of 200 μ1. […] Specific binding was determined in each test by subtracting from the total binding the amount of ^125 I-fibrinogen bound in the presence of a 60-fold excess of unlabeled fibrinogen. […]

In patent publication US5453440A, “Peptide mimics useful as platelet aggregation inhibitors” (G. D. Searle & Co., priority 1993, dated 1995) one finds IC50 data, which are given here for three compounds.

Regarding `COC(=O)[C@H](Cc1ccccc1)NC(=O)[C@H](CC(=O)O)NC(=O)CCC(=O)Nc1ccc(C(=N)N)cc1` [Example 1, N-[N-[4-[[4-(aminoiminomethyl)phenyl]-amino]-1,4-dioxobutyl]-L-alpha-aspartyl]-L-phenylalanine, 1-methyl ester], the IC50 was found to be 0.09 µM in assay [1] and 0.048 µM in assay [2].
For the compound `N=C(N)c1ccc(NC(=O)CCC(=O)N[C@@H](CC(=O)O)C(=O)N[C@@H](Cc2ccccc2)C(=O)O)cc1` [Example 2, N-[N-[4-[[4-(aminoiminomethyl)phenyl]amino]-1,4-dioxobutyl]-L-alpha-aspartyl]-L-phenylalanine], it took 0.08 µM to reach half-maximal inhibition in assay [1] (IC50).
Still for that read-out and setting: the result for `N=C(N)c1ccc(N(Cc2ccccc2)C(=O)CCC(=O)N[C@@H](CC(=O)O)C(=O)N[C@@H](Cc2ccccc2)C(=O)O)cc1` [Example 9] reads 0.35 µM.
